Reference: US20230265098A1, “ALKYNE QUINAZOLINE DERIVATIVES AS INHIBITORS OF ERBB2” (EnLiven Therapeutics, Inc., priority 2020, published 2023)
Where a name gives a salt, the structure may show the parent alone.

Tests used:
[1] = biological target: T1, phosphorylated ERBB2 (pERBB2) (Homo sapiens, UniProt P04626); assay: Detection of phosphorylated ERBB2 (pERBB2) by ELISA in BT-474 cells; assay type: cell-based; details: four hours incubation with compound, OD 450 nm
T1 construct: endogenous in cells; host or cells: BT-474
Procedure: BT-474 cells were seeded into a 96-well at 2.0*10^4 cells/100 μl/well.
Compounds were dissolved and serially diluted in DMSO. The compounds were then were added, mixed, and incubated for four hours at 37° C., 5% CO2. Compounds were added using four-fold dilutions at final concentrations ranging from 10 μM to 0.01 nM.
Following the four hour incubation with compounds, cell lysates were prepared. Plates were centrifuged for 5 min at 3000 RPM, and supernatant was removed from each well. Cells were washed 3 times by resuspension in 150 μl PBS, followed by centrifugation and removal of the supernatant, as above. […] Cells were incubated with lysis buffer for 1 hour at 4° C., and then stored at −80° C.
Enzyme-linked immunosorbent assays (ELISA) were performed to measure phosphorylated ERBB2 levels. […] The next day, plates were washed with PBS+0.05% Tween20 (PBST). 150 μl of 5% BSA blocking solution was added for 1 hour at room temperature, with shaking. Plates were washed with PBST. Cell lysates were thawed and 100 μl of lysate was added to the ELISA plate. The plates were incubated for 2 hours at room temperature, with shaking. […] Plates were incubated for 1 hour at room temperature, with shaking. Plates were then washed with PBST, and 100 μl TMB substrate solution (R&D Systems, cat #DY999) was added. Plate were incubated in the dark for 20 minutes at room temperature. 50 μl of Stop solution (R&D Systems, cat #DY994) (50 μl) was added to each well and mixed.
Optical density at 450 nm was read on an EnSpire plate reader (Perkin Elmer). The remaining kinase activity by calculated using the following formula: % Relative activity=100×(A450sample−A450LC)/(A450HC−A450LC). The low and high control values (“LC” and “HC”) were generated from lysate from wells without cells or with cells treated with 0.1% DMSO, respectively.

[2] = biological target: T2, phosphorylated EGFR (pEGFR) (Homo sapiens, UniProt P00533); assay: Detection of phosphorylated EGFR (pEGFR) in EGF-stimulated A431 cells (AlphaLISA); assay type: cell-based; details: A431 cells (10% FBS), 4 hours with compound, then EGF 30 ng/mL for 10 minutes
T2 construct: endogenous in cells; host or cells: A431
Procedure: Enzyme-linked immunosorbent assays (ELISA) were performed to measure phosphorylated EGFR levels using A431 cells (10% FBS). A431 (1.0*10^4 cells/40 μl/well) cells were seeded in 384 well. Compounds were dissolved in DMSO, serially diluted in DMSO and then were added, mixed, and incubated for 4 hours at 37° C., 5% CO2. Following the 4-hours incubation, cells were stimulated for 10 minutes with EGF (Invitrogen, cat #PHG0311) at a final concentration of 30 ng/mL in the incubator. The media was aspirated and cells were lysed in 10 μL lysis buffer with protease and phosphatase inhibitors (PerkinElmer, cat #ALSU-PEGFR-A50K). The plates were placed on a shaker for 5 minutes and then incubated for 30 min at 4° C. for complete lysis. The lysate was transferred to an Optiplate (Perkin Elmer, cat #6007290).
Acceptor mix (PerkinElmer, cat #ALSU-PEGFR-A50K) was prepared just before use and 5 μL was dispensed to all the wells, followed by a 1.5-2 h incubation at room temperature in dark. The donor mix (PerkinElmer, cat #ALSU-PEGFR-A50K) was prepared under low light conditions prior to use and […] of donor mix was added to all the wells under subdued lighting or green filters. The plates were placed on a shaker for 5 min, sealed, and incubated overnight at room temperature in dark. Plates were read on the Envision (PerkinElmer) using standard AlphaLISA settings.
The percentage of inhibition on EGFR phosphorylation was calculated following equation: % Inhibition=100×(LumHC−LumSample)/(LumHC−LumLC). The low and high controls (LC/HC) are generated from lysate from wells with cells treated with DMSO or […] Staurosporine (BioAustralis, cat #BIA-S1086), […]. IC50 values were calculated by fitting the Curve using XLfit (v5.3.1.3), equation 201: Y=Bottom+(Top−Bottom)/(1+10^((LogIC50−X)*HillSlope)).

[3] = biological target: T3, Ba/F3 ERBB2 A775_G776insYVMA (Homo sapiens, UniProt P04626, DUP772-775, cells depend on it); assay: Cell viability assay (CellTiter Glo); assay type: cell-based, mouse; details: 72 hours; 300 cells per well, 384-well plates (Table B5); read-out: Cell Line: Ba/F3 ERBB2 A775 G776ins YVMA IC50
T3 construct: Ba/F3 cell lines were engineered to express human ERBB2 or EGFR kinases, rendering the cells IL-3 independent
Procedure: Cells were treated with compounds, and cell viability was measured as a metric of kinase inhibition.
The Ba/F3 cell line is IL-3-dependent mouse cell line derived from the C3H mouse strain. Ba/F3 cell lines were engineered to express human ERBB2 or EGFR kinases, rendering the cells IL-3 independent. The lines were generated via retroviral transduction utilizing a Moloney murine leukemia virus (MMLV) promoter, and constructs are stably integrated into the cell genome.
Similarly, Ba/F3 cell lines engineered to express EGFR, ERBB2, or ERBB2 mutants were grown, harvested, counted and seeded at 3000 cells per well in 96-well plates for the data sets shown in Tables B3-B4, and seeded at 300 cells per well in 384-well plates for the data set shown in Table B5. A subset of wells contained media only (low control, “LC”).
Table B2 provides the growth media and number of cells seeded per well for the each cell line.
Compounds were dissolved in DMSO and serially diluted. Serially-diluted compound or a DMSO only control (high control, “HC”) was added to the plated cells in each well. […] The final proportion of DMSO never exceeded 0.1%.
Plates were placed in a 37° C., 5% CO2 incubator for 72 hours. Plates were then removed from the incubator and equilibrated for 15 minutes at room temperature. 40 IA of CellTiter Glo reagent (Promega) was added to measure the relative level of metabolically active cells by quantifying intracellular ATP concentrations. Plates were incubated for 30 minutes at room temperature, and luminescence was measured. Percent viability was normalized to a vehicle control only using the following formula: % viability=100×(LumSample−LumLC) (LumHC−LumLC). Graphical curves were fitted using a nonlinear regression model with a sigmoidal dose response.

T1 sequence (P04626 23-1255): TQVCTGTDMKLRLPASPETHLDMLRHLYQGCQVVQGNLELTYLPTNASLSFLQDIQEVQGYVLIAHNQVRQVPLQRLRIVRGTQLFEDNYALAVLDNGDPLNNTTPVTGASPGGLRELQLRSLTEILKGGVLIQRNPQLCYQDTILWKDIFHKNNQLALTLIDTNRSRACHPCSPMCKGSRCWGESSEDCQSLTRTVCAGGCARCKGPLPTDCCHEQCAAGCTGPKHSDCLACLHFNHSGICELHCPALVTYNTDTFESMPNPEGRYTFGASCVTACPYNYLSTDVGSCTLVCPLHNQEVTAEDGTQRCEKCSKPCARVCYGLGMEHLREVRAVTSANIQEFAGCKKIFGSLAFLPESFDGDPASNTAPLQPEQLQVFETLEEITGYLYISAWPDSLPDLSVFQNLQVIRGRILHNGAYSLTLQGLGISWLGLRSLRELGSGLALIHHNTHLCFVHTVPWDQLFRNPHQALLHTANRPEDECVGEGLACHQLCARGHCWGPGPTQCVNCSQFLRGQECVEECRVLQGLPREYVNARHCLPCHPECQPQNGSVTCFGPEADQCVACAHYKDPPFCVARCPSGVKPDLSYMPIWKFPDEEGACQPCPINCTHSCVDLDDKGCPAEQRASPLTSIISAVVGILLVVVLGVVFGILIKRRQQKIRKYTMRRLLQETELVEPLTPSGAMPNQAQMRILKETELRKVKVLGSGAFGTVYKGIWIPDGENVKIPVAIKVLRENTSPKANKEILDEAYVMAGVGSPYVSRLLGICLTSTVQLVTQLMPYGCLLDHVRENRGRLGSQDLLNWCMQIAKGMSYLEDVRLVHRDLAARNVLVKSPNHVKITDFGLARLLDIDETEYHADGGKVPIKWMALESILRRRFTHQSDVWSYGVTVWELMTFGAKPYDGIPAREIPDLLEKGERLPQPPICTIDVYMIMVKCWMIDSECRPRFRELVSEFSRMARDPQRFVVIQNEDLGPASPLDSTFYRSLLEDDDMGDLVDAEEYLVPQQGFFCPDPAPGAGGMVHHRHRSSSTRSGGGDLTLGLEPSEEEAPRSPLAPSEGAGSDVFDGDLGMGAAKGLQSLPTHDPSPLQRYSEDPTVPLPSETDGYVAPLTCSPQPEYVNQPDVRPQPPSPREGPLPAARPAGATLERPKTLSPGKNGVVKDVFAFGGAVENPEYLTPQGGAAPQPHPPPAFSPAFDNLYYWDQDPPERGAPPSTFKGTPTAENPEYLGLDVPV
T2 sequence (P00533 25-1210): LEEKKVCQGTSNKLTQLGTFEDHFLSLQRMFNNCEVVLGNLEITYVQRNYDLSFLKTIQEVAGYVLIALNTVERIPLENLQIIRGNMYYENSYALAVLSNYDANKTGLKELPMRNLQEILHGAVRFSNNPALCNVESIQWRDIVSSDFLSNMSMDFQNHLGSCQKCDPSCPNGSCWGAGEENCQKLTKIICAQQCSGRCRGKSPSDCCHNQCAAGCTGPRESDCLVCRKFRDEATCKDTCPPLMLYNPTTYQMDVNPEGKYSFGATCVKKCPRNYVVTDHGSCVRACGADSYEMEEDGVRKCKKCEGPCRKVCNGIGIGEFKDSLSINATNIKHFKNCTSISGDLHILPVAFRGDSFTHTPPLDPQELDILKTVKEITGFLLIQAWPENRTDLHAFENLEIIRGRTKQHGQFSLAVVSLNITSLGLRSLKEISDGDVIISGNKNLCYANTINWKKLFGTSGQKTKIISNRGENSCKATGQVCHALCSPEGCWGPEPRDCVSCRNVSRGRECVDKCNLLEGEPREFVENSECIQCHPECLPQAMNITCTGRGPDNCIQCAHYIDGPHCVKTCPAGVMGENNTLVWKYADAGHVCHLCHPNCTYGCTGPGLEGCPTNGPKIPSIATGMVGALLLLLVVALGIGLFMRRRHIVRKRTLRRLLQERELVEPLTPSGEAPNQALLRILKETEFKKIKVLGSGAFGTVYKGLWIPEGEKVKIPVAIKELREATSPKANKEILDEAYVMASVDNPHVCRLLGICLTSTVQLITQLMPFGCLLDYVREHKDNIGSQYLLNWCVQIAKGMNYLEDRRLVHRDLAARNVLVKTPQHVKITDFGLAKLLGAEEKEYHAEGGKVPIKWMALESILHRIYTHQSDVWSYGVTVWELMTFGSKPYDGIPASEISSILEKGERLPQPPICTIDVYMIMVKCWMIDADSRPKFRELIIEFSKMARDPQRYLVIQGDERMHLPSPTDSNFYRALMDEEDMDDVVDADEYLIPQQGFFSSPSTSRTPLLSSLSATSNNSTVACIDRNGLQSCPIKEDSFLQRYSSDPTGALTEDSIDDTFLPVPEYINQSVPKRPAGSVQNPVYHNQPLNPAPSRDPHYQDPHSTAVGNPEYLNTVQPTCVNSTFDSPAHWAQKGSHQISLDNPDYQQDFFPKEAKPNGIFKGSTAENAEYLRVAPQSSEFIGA
T3 sequence (P04626 with tags, fused parts or gaps DUP772-775): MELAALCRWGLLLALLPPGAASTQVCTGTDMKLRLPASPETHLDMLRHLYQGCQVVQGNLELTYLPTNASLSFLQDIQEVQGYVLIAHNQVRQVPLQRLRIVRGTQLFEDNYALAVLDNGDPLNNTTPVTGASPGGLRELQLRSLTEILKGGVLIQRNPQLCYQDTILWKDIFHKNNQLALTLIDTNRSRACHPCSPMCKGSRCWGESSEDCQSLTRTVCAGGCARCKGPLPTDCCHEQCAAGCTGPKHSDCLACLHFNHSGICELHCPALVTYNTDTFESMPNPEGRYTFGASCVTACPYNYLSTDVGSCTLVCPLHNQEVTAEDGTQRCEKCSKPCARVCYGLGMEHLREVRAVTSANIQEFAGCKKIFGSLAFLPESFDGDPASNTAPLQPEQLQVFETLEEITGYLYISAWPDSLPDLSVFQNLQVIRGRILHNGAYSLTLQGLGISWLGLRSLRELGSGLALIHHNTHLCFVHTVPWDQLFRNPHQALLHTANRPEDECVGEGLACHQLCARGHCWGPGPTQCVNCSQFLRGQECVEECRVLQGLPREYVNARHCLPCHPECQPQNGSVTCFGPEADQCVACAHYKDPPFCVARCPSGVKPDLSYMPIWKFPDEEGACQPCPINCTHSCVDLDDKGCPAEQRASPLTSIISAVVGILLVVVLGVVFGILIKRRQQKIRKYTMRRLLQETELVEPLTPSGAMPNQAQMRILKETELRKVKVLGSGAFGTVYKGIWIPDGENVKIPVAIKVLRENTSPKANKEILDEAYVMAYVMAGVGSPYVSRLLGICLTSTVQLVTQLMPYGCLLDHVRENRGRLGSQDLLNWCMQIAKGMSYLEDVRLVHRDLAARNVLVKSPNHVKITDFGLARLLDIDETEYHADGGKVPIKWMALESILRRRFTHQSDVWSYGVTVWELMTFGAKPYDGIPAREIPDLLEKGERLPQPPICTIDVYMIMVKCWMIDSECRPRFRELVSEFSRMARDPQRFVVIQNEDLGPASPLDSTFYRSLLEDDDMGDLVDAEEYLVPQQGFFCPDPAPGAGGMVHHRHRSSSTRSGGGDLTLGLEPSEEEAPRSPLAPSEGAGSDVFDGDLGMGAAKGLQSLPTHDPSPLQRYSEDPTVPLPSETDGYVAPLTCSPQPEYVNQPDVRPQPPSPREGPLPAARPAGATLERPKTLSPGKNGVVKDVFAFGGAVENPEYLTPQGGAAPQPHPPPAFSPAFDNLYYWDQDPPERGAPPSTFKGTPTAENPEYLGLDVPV

Structure (SMILES) | IC50 [1] [nM] | IC50 [2] [nM] | GI50 [3] [nM]
Cc1cc(Nc2ncnc3cc(OCCN(C)C)c(NC(=O)C#CC4CC4)cc23)ccc1Oc1ccn2ncnc2c1 [Compound 170, 3-cyclopropyl-N-{7-[2-(dimethylamino)ethoxy]-4-[(3-methyl-4-{[1,2,4]triazolo[1,5-a]pyridin-7-yloxy}phenyl)amino]quinazolin-6-yl}prop-2-ynamide hydrochloride] | 14 | 418 | 
Cc1c(Oc2ccn3ncnc3c2)ccc(Nc2ncnc3cc(OCCN(C)C)c(NC(=O)C#CC4CC4)cc23)c1F [Compound 179, N-(4-((4-([1,2,4]triazolo[1,5-a]pyridin-7-yloxy)-2-fluoro-3-methylphenyl)amino)-7-(2-(dimethylamino)ethoxy)quinazolin-6-yl)-3-cyclopropylpropiolamide] | 121 | 2550 | 
CC#CC(=O)Nc1cc2c(Nc3ccc(Oc4ccn5ncnc5c4)c(C)c3F)ncnc2cc1OCCN(C)C [Compound 180, N-(4-((4-([1,2,4]triazolo[1,5-a]pyridin-7-yloxy)-2-fluoro-3-methylphenyl)amino)-7-(2-(dimethylamino)ethoxy)quinazolin-6-yl)but-2-ynamide] | 23.4 | 1590 | 
Cc1cc(Nc2ncnc3cc(OCCN(C)C)c(NC(=O)C#CC4CC4)cc23)c(F)cc1Oc1ccn2ncnc2c1 [Compound 181, N-(4-(4-([1,2,4]triazolo[1,5-a]pyridin-7-yloxy)-2-fluoro-5-methylphenylamino)-7-(2-(dimethylamino)ethoxy)quinazolin-6-yl)-3-cyclopropylpropiolamide formate] | 22.8 | 971 | 
CC#CC(=O)Nc1cc2c(Nc3cc(C)c(Oc4ccn5ncnc5c4)cc3F)ncnc2cc1OCCN(C)C [Compound 182, N-{7-[2-(dimethylamino)ethoxy]-4-[(2-fluoro-5-methyl-4-{[1,2,4]triazolo[1,5-a]pyridin-7-yloxy}phenyl)amino]quinazolin-6-yl}but-2-ynamide] | 13.2 | 1490 | 
Cc1cc(Nc2ncnc3ccc(NC(=O)C#CC4(C)CC4)cc23)ccc1Oc1ccn2ncnc2c1 [Compound 185, N-{4-[(3-methyl-4-{[1,2,4]triazolo[1,5-a]pyridin-7-yloxy}phenyl)amino]quinazolin-6-yl}-3-(1-methylcyclopropyl)prop-2-ynamide] | 17.3 | 680 | 5.11
CC#CC(=O)Nc1cc2c(Nc3ccc(Oc4ccc(C)nc4)c(C)c3)ncnc2cc1OCCN(C)C [Compound 186, N-{7-[2-(dimethylamino)ethoxy]-4-({3-methyl-4-[(6-methylpyridin-3-yl)oxy]phenyl}amino)quinazolin-6-yl}but-2-ynamide] | 16.1 | 74.5 | 
CNCCOc1cc2ncnc(Nc3ccc(Oc4ccn5ncnc5c4)c(C)c3)c2cc1NC(=O)C#CC1CC1 [Compound 187, 3-cyclopropyl-N-{4-[(3-methyl-4-{[1,2,4]triazolo[1,5-a]pyridin-7-yloxy}phenyl)amino]-7-[2-(methylamino)ethoxy]quinazolin-6-yl}prop-2-ynamide] | 30.5 | 434 | 19.6
Cc1cc(Nc2ncnc3ccc(NC(=O)C#CC4CC4)cc23)ccc1Oc1ccc([C@@H](F)CF)nc1 [Compound 188, (R)-3-cyclopropyl-N-(4-((4-((6-(1,2-difluoroethyl)pyridin-3-yl)oxy)-3-methylphenyl)amino)quinazolin-6-yl)propiolamide] | 78 | 297 | 
CC#CC(=O)Nc1cc2c(Nc3ccc(Cc4ccn5ncnc5c4)c(C)c3)ncnc2cc1OCCCN(C)C [Compound 189, N-{7-[3-(dimethylamino)propoxy]-4-[(3-methyl-4-{[1,2,4]triazolo[1,5-a]pyridin-7-ylmethyl}phenyl)amino]quinazolin-6-yl}but-2-ynamide] | 1.87 | 106 | 2.47
Cc1cc(Nc2ncnc3cc(OCCN(C)C)c(NC(=O)C#CC4(C)CC4)cc23)ccc1Oc1ccn2ncnc2c1 [Compound 190, N-{7-[2-(dimethylamino)ethoxy]-4-[(3-methyl-4-{[1,2,4]triazolo[1,5-a]pyridin-7-yloxy}phenyl)amino]quinazolin-6-yl}-3-(1-methylcyclopropyl)prop-2-ynamide] | 24.9 | 1220 | 34.5
Cc1cc(Nc2ncnc3cc(OCCN(C)C)c(NC(=O)C#CC(C)(C)C)cc23)ccc1Oc1ccn2ncnc2c1 [Compound 191, N-{7-[2-(dimethylamino)ethoxy]-4-[(3-methyl-4-{[1,2,4]triazolo[1,5-a]pyridin-7-yloxy}phenyl)amino]quinazolin-6-yl}-4,4-dimethylpent-2-ynamide] | 93.2 | > 10000 | 177
CC#CC(=O)Nc1cc2c(Nc3ccc(Oc4ccn5ncnc5c4)c(C)c3)ncnc2cc1OCCN1CCCC1 [Compound 192, N-{4-[(3-methyl-4-{[1,2,4]triazolo[1,5-a]pyridin-7-yloxy}phenyl)amino]-7-[2-(pyrrolidin-1-yl)ethoxy]quinazolin-6-yl}but-2-ynamide] | 9.51 | 1350 | 11
CC#CC(=O)Nc1cc2c(Nc3ccc(Oc4ccn5ncnc5c4)c(Cl)c3F)ncnc2cc1OCCN(C)C [Compound 193, N-(4-((4-([1,2,4]triazolo[1,5-a]pyridin-7-yloxy)-3-chloro-2-fluorophenyl)amino)-7-(2-(dimethylamino)ethoxy)quinazolin-6-yl)but-2-ynamide] | 13.8 | 658 | 9.32
CC#CC(=O)Nc1cc2c(Nc3cc(Cl)c(Oc4ccn5ncnc5c4)cc3F)ncnc2cc1OCCN(C)C [Compound 197, N-(4-((4-([1,2,4]triazolo[1,5-a]pyridin-7-yloxy)-5-chloro-2-fluorophenyl)amino)-7-(2-(dimethylamino)ethoxy)quinazolin-6-yl)but-2-ynamide] | 11.4 | 555 | 
